Active and inactive are the calls of the source.
Experiments:
[1] = target: Beta-galactosidase (Escherichia coli, UniProt Q8VNN2); assay: Dose response counterscreen for EBI2 assay utilizing the enzyme, b-galactosidase.; assay type: functional
[2] = inhibitors of HIV Env-driven cell fusion, dose response, cherry-pick (AID 652057); assay type: functional, cell-based
[3] = ZM109 Env clade C HIV-1 fusion inhibitors, dose response, HeLa effector, CEM target cells, luciferase, cherry-pick (AID 652058); assay type: functional, cell-based
[4] = off-target signal loss in HeLa-CEM21 co-culture – HeLa F-luc CTL cells, cherry-picked, counter-screen for HIV-1 Env fusion inhibitor project, dose response (AID 652040); assay type: functional, cell-based;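 further: potency for signal decrease marking cytotoxic or nonspecific inhibition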
[5] = inhibitors of clade B AD8 Env fusion, dose response, cell-based, cherry-pick (AID 652062); assay type: functional;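 further: luciferase signal from cell-cell fusion driven by HIV-1 clade B AD8 Env; potency is for inhibitors of fusion seen as a drop in luminescence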
[6] = system: Streptococcus sp. 'group A'; assay: growth inhibition of control SK(-) GAS strain, dose response, counter-screen for streptokinase expression inhibitor project, luminescence, kanamycin, BacTiterGlo, confirmation (AID 1900); assay type: functional, organism-based
[7] = system: Streptococcus; assay: Group A Streptococcus viability loss, dose response, counter-screen for streptokinase expression inhibitor project, luminescence, BacTiterGlo (AID 1915); assay type: functional, organism-based;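 further: potency for reduction of bacterial viability or growth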
[8] = CEM21 lymphoblast cell cytotoxicity, dose response, cytotoxicity control for viral fusion inhibitor project, CellTiter-Glo luminescence, cherry-picked (AID 652042); assay type: functional, cell-based;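 further: potency for signal decrease meaning cytotoxicity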
[9] = target: T1, Long-chain-fatty-acid--AMP ligase FadD28 (Mycobacterium tuberculosis, UniProt P9WQ59); assay: Fluorescence polarization aasay to screen for inhibitors that compete for the binding of FadD28 to a bisubstrate Measured in Biochemical System Using Plate Reader - 2147-01_Inhibitor_Dose_CherryPick_Activity.; assay type: functional, Mycobacterium tuberculosis H37Rv
T1 sequence (P9WQ59 whole entry): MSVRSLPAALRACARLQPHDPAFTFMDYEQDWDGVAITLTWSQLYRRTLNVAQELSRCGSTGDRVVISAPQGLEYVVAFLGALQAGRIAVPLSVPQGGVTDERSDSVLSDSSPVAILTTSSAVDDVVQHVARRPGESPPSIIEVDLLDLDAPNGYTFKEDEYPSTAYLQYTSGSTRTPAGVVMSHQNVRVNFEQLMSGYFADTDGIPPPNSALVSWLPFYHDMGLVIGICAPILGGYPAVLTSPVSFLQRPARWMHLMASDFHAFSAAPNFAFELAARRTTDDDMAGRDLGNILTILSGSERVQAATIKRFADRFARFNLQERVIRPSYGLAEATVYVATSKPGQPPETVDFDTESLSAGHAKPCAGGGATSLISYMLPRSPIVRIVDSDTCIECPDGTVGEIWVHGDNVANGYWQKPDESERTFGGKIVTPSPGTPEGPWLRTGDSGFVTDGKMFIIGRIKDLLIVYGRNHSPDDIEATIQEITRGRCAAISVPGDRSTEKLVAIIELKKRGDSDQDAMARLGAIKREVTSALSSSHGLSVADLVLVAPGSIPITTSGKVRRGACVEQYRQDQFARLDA

[10] = target: T2, Fatty acid synthase (Homo sapiens, UniProt P49327); assay: FAS thioesterase domain inhibitors, dose response, biochemical, endpoint fluorescence intensity, uHTS hits (AID 624327); assay type: functional;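 further: fluorescence from hydrolysis of an O-methyl fluorescein acyl ester substrate by the enzyme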
T2 sequence (P49327 whole entry, the tested form may be a part): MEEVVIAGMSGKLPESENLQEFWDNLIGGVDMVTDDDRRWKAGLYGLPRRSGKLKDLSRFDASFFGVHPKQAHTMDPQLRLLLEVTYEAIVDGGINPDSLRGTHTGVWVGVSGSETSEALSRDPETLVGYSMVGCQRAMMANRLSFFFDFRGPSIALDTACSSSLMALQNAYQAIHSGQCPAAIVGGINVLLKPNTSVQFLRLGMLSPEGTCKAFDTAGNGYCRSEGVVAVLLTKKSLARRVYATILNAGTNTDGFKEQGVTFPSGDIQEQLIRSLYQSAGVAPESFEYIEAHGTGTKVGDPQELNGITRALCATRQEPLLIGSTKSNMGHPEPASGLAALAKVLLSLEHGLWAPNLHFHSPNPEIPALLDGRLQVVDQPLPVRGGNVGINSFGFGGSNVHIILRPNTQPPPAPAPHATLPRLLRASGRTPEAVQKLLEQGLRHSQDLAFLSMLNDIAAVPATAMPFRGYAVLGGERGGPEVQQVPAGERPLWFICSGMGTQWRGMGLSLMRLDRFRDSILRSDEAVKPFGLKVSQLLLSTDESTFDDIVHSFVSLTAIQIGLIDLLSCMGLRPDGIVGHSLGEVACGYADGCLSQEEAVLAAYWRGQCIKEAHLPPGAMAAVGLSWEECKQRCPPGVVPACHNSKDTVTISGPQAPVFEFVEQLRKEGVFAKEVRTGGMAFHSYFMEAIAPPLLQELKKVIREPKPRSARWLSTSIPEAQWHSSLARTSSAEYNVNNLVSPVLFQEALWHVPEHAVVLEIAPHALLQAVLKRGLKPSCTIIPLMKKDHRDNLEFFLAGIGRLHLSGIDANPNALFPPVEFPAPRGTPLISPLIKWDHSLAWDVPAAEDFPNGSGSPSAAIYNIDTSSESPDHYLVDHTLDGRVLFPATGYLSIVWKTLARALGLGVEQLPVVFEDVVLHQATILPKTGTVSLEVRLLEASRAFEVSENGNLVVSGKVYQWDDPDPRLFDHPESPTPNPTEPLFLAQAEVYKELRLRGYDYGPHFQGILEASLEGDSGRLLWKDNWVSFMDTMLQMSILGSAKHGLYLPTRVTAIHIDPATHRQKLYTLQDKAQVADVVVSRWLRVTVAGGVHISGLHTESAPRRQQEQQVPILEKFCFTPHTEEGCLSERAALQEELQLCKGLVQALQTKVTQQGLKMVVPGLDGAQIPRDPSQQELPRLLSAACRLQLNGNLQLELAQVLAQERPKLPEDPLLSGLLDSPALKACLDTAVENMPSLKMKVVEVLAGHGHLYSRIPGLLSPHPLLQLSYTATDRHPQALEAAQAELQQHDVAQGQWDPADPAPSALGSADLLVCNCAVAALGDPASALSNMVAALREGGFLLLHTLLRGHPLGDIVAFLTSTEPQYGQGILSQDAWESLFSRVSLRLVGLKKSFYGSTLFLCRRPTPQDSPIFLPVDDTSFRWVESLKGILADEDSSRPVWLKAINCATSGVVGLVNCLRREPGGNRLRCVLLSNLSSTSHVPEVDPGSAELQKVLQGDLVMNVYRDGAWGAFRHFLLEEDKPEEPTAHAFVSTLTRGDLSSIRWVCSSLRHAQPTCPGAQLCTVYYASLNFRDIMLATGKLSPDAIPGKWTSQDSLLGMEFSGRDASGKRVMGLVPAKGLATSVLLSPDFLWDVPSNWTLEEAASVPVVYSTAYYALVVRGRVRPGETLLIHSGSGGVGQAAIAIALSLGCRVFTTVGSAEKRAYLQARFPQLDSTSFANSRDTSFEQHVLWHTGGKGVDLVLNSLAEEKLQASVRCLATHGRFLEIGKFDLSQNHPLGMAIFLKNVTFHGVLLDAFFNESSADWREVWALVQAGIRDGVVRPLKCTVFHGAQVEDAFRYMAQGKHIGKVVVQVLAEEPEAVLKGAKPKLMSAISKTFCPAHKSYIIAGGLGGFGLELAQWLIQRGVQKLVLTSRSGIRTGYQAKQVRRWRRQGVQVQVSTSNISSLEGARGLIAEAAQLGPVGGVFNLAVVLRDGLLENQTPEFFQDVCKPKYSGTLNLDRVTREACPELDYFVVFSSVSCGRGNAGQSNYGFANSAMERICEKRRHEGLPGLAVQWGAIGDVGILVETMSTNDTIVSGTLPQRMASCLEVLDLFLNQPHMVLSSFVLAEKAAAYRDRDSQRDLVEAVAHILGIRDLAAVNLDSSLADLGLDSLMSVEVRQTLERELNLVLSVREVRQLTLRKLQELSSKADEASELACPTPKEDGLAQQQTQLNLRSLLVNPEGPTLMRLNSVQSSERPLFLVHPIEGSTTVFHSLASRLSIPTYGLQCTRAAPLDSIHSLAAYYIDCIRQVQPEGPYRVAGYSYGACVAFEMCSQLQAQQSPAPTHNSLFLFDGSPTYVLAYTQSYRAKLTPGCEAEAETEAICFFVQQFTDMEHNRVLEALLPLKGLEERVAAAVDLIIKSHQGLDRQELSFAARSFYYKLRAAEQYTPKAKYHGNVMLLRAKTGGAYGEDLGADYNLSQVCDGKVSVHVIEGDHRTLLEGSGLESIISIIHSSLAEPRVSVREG

[11] = target: T2, Fatty acid synthase; assay: FAS thioesterase domain inhibitors, dose response, biochemical, kinetic fluorescence intensity (AID 624326); assay type: functional;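 further: rate of fluorescence rise from hydrolysis of a fluorogenic O-methyl fluorescein ester substrate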
[12] = T. cruzi growth inhibition in host cells, dose response, cell-based, plate reader, dry powder, set 2 (AID 652275); assay type: functional
[13] = target: T3, Rac GTPase-activating protein 1 (Homo sapiens, UniProt Q9H0H5); assay: MgcRacGAP GTPase-activating activity inhibitors, confirmation, biochemical, ADP Hunter fluorescence, primary and confirmatory (AID 624330); assay type: functional
T3 sequence (Q9H0H5 whole entry): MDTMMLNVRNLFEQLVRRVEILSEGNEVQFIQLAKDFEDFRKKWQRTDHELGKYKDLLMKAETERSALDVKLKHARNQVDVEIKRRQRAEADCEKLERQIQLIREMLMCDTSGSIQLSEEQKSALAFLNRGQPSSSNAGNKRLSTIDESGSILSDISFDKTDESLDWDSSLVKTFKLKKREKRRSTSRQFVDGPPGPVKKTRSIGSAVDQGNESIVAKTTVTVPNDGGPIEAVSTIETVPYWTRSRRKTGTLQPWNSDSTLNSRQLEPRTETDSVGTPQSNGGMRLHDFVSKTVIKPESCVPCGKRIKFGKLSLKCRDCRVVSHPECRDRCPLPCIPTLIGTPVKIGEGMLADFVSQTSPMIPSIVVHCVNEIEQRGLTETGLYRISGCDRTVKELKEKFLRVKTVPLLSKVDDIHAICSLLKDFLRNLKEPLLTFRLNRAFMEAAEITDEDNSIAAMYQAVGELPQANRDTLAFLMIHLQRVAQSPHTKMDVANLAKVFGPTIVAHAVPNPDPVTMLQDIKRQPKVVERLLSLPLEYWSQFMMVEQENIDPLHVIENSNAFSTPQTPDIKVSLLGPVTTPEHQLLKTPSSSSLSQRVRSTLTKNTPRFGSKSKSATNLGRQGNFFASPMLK

[14] = HeLa cell cytotoxicity, dose response, cytotoxicity control for MgcRacGAP inhibitor project (AID 624300); assay type: functional
[15] = system: P388/ADR; assay: cells; assay type: functional; conditions: Mus musculus
[16] = system: SN12K1; assay: cells; assay type: functional; conditions: Homo sapiens
[17] = system: P388; assay: cells; assay type: functional; conditions: Mus musculus
[18] = target: T4, Histone-lysine N-methyltransferase NSD2 (Homo sapiens, UniProt O96028); assay type: biochemical
T4 sequence (O96028 whole entry): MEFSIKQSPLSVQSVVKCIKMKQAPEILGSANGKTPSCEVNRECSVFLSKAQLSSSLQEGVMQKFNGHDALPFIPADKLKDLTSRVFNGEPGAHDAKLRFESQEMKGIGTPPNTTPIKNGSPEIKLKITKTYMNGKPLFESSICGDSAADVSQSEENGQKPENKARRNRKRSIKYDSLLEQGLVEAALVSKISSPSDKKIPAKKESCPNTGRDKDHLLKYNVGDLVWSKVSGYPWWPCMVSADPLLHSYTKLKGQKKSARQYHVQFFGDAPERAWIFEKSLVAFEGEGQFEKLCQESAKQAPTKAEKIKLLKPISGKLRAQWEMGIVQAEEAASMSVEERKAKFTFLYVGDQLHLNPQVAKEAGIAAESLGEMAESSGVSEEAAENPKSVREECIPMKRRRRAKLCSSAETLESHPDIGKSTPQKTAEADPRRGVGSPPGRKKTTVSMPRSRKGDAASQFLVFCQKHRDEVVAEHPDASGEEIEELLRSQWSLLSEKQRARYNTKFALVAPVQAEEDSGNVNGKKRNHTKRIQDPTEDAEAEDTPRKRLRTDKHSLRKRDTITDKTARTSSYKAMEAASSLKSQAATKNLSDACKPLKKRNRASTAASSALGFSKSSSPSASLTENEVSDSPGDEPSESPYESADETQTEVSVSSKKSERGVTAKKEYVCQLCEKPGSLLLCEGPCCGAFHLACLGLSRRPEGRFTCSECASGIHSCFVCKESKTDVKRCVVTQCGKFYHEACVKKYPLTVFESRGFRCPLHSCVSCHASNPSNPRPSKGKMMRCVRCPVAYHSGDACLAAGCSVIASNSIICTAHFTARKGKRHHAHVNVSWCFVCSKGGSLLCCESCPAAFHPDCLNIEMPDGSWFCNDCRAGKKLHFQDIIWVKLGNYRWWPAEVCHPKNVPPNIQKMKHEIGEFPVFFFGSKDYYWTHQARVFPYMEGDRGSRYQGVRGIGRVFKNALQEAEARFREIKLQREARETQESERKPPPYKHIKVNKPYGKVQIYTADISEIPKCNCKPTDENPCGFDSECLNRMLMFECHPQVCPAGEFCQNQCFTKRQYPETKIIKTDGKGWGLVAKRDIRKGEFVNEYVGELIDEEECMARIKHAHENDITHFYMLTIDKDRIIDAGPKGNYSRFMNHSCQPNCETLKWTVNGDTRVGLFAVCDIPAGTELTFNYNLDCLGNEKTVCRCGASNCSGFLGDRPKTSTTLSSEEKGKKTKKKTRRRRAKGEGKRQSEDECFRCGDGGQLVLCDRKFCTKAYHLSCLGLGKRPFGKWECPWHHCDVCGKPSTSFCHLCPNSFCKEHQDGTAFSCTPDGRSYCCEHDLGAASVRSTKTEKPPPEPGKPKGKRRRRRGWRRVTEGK

Chain of Beta-galactosidase (Q8VNN2 whole entry, the tested form may be a part): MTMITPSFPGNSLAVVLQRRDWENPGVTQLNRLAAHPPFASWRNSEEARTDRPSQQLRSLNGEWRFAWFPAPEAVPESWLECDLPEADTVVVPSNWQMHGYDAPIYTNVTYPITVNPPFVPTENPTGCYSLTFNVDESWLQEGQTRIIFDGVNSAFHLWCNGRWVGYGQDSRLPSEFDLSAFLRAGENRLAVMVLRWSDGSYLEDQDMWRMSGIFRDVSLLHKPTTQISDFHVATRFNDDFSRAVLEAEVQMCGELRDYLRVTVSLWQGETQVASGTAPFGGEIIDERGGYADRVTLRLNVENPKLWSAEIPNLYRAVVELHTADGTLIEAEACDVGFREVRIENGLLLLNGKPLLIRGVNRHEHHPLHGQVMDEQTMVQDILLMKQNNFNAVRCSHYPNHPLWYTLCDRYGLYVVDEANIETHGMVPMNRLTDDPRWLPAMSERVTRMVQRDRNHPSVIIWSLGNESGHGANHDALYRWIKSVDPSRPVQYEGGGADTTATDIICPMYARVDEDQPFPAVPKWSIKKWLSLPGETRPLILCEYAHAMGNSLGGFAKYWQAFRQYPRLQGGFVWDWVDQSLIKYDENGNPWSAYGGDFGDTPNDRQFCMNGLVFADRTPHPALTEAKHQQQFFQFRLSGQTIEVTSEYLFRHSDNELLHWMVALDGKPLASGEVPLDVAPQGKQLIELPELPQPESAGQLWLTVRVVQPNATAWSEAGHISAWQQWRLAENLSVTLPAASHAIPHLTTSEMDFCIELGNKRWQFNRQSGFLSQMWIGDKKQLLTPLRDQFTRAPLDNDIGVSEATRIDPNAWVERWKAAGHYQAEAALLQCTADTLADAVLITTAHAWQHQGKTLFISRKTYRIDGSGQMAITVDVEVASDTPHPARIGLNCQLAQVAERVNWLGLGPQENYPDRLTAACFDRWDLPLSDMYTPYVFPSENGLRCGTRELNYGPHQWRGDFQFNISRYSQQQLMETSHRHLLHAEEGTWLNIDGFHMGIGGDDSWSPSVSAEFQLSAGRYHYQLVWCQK

Cc1ccc2oc(=O)c3cnn(CC(=O)N(Cc4ccco4)C4CCCCC4)c3c2c1
IC50 [1]: > 80 µM (inactive)

O=C(CN(Cc1ccccc1F)S(=O)(=O)c1ccc(Cl)cc1)NCCC1=CCCCC1
AC50 [2]: 4.11 µM (active) | AC50 [3]: 4.59 µM (active) | AC50 [4]: 6.77 µM (active) | AC50 [5]: 25.6 µM (active)

Cc1ccc(NN=C(S)Nc2ccc(C(C)C)cc2)c(C)c1
IC50 [1]: 66.1 µM (inactive)

Cc1onc(-c2ccccc2)c1C(=O)NC(=S)NNC(=O)c1ccc(O)cc1
EC50 [6]: 0.547 µM (active) | EC50 [7]: 9.46 µM (active) | AC50 [8]: 67.3 µM (active) | AC50 [5]: 10.5 µM (active)

CC1=C(O)C(=O)C(c2c(C)cc(C)c(Br)c2C)=C(O)C1=O
AC50 [9]: 51.8 µM (active) | IC50 [10]: 10.8 µM (active) | IC50 [11]: 9.46 µM (active)

O=C(Nc1cccc(F)c1)c1cc(S(=O)(=O)N2CCC(C(=O)O)CC2)ccc1F
AC50 [4]: 28.9 µM (active)

COc1cc(/C=C2\C(=O)NN(c3ccc(C)cc3)C2=O)cc([N+](=O)[O-])c1O
AC50 [9]: 86.9 µM (active)

C[C@H]1CN([C@@H](C)CO)C(=O)c2cccc(NC(=O)c3ccncc3)c2O[C@@H]1CN(C)Cc1ccc(Cl)cc1
AC50 [12]: 0.00712 µM (active)

Cc1ccc(OCC(=O)N2CCN(Cc3ccc([N+](=O)[O-])cc3)CC2)cc1
IC50 [13]: 163 µM (active) | IC50 [1]: > 80 µM (inactive)

CCOC(=O)[C@]12CCC=C1N(Cc1ccc3c(c1)OCO3)C(=O)[C@H](CC(=O)NCC13CC4CC(CC(C4)C1)C3)C2
AC50 [2]: 16.5 µM (active) | AC50 [8]: 34 µM (active) | AC50 [3]: 22.7 µM (active)

O=C(CN1C(=O)NC2(CCOc3ccccc32)C1=O)c1ccc(Br)cc1 (stereo not given)
AC50 [9]: 98.9 µM (active)

CC(C)(C)[S+]([O-])N1Cc2cc(C(=O)NCc3ccc4c(c3)OCO4)nc(-c3cccc(C#CCC4CCCC4)c3)c2[C@H]1CCO (stereo not given in full)
AC50 [12]: 1.01 µM (active)

COc1cc(/C=N/NC(=S)NC2CC3CCC2C3)ccc1O (stereo not given)
CC50 [14]: 100 µM (active) | IC50 [13]: 48.8 µM (active)

COC1C(O)C(C)OC(OC2C(Oc3cccc4c(O)c5c(=O)oc6ccc(C)c7c(=O)oc(c34)c5c67)OC(C)C(O)C2O)C1O (stereo not given)
GI50 [15]: 7.08 µM (inactive) | GI50 [16]: 0.593 µM (active) | GI50 [17]: 0.598 µM (active) | AC50 [18]: > 20 µM (inactive)

CC(C)(C)[S@+]([O-])N1Cc2cc(C(=O)NCc3ccc4c(c3)OCO4)nc(-c3cccc(-c4ccncc4)c3)c2[C@@H]1CCO
AC50 [12]: 0.152 µM (active)

Source: ChEMBL document CHEMBL1201862, “PubChem BioAssay data set” (2004)
